Source: US9469650B2, “Melampomagnolide B derivatives” (BOARD OF TRUSTEES OF THE UNIVERSITY OF ARKANSAS, priority 2013, dated 2016)
Read-outs that look alike come from different tables or passages of the source.

Columns and labels:
RPMI-8226 = assay: panel of 60 human tumor cell lines, growth inhibition (Leukemia); details: for GI50 / CC50: Homo sapiens; for GI50 / Percent Growth / TGI: RPMI-8226; for CC50: RPMI-8226, read-out: LC50
[1] = system: panel of 60 human tumor cell lines; assay: panel of 60 human tumor cell lines, whole panel or sub-panel (single concentration screen, summaries); assay type: cell-based; details: for inhibition at 10 µM: single concentration of 10^−5 M, read-out: growth inhibition in at least eight human cancer cell lines from the panel; for GI50: range over 6a and 6e
MALME-3M = assay: panel of 60 human tumor cell lines, growth inhibition (Melanoma); details: for GI50 / CC50: Homo sapiens, Malme-3M; for CC50: read-out: LC50; for Percent Growth / TGI: MALME-3M
OVCAR-4 = assay: panel of 60 human tumor cell lines, growth inhibition (Ovarian Cancer); assay type: cell-based; details: OVCAR-4; for GI50 / IC (TGI) / CC50: Homo sapiens; for CC50: read-out: LC50 (the source's name)
HL-60(TB) = assay: cells; details: Homo sapiens; for GI50: HL-60; for CC50: HL-60, read-out: LC50; for IC (TGI): HL-60, read-out: TGI

Source text for AML 052308 cells: Derivatives were screened for antileukemic activity against AML cells in culture (See FIGS. 1-7).

SMILES: C=C1C(=O)O[C@H]2[C@H]1CC/C(COC(=O)Nc1n[nH]c(SC)n1)=C\CC[C@@]1(C)O[C@@H]21 [JVM 64, ((1aR,7aS,10aS,10bS,E)-1a-methyl-8-methylene-9-oxo-1a,2,3,6,7,7a,8,9,10a,10b-decahydrooxireno[2′,3′:9,10]cyclodeca[1,2-b]furan-5-yl)methyl-(5-(methylthio)-1H-1,2,4-triazol-3-yl)carbamate]
- GI50 (RPMI-8226): 2.57 µM
- CC50 (RPMI-8226): > 100 µM
- Percent Growth (RPMI-8226; Log10 Concentration −4.0): −46%
- Percent Growth (RPMI-8226; Log10 Concentration −5.0): −11%
- Percent Growth (RPMI-8226; Log10 Concentration −6.0): 93%
- Percent Growth (RPMI-8226; Log10 Concentration −7.0): 100%
- Percent Growth (RPMI-8226; Log10 Concentration −8.0): 101%
- TGI (RPMI-8226; NCI five dose): 7.79E−6
- cytotoxicity compared to MMB (AML 052308 cells): more potent than MMB
- fold more cytotoxic than MMB (AML 052308 cells): 3 fold
- inhibition at 10 µM [1]: > 60%
- GI50 ([1]; sub-panel breast cancer): 0.57 to 3.07 µM
- GI50 ([1]; sub-panel colon cancer): 1.12 to 2.06 µM
- GI50 ([1]; sub-panel melanoma): 0.46 to 2.84 µM
- GI50 ([1]; sub-panel non-small cell lung cancer): 0.65 to 1.45 µM
- GI50 ([1]; sub-panel renal cancer): 0.9 to 2.6 µM
- GI50 (MALME-3M): 2.32 µM
- CC50 (MALME-3M): 78.8 µM
- Percent Growth (MALME-3M; Log10 Concentration −4.0): −54%
- Percent Growth (MALME-3M; Log10 Concentration −5.0): −12%
- Percent Growth (MALME-3M; Log10 Concentration −6.0): 66%
- Percent Growth (MALME-3M; Log10 Concentration −7.0): 99%
- Percent Growth (MALME-3M; Log10 Concentration −8.0): 104%
- TGI (MALME-3M; NCI five dose): 7.53E−6
- GI50 (OVCAR-4; NCI five dose): 3.28 µM
- IC (TGI) (OVCAR-4; NCI five dose): 19.3 µM
- CC50 (OVCAR-4; NCI five dose): 62.4 µM

SMILES: C=C1C(=O)O[C@H]2[C@H]1CC/C(COC(=O)NCCN1CCOCC1)=C\CC[C@@]1(C)O[C@@H]21 [JVM 57, ((1aR,7aS,10aS,10bS,E)-1a-methyl-8-methylene-9-oxo-1a,2,3,6,7,7a,8,9,10a,10b-decahydrooxireno[2′,3′:9,10]-cyclodeca[1,2-b]furan-5-yl)-methyl(2-morpholinoethyl)carbamate]
- GI50 (RPMI-8226): 5.72 µM
- CC50 (RPMI-8226): > 100 µM
- TGI (RPMI-8226): 2.63E−5
- Percent Growth (RPMI-8226; Log10 Concentration −4.0): −47%
- Percent Growth (RPMI-8226; Log10 Concentration −5.0): 34%
- Percent Growth (RPMI-8226; Log10 Concentration −6.0): 99%
- Percent Growth (RPMI-8226; Log10 Concentration −7.0): 97%
- Percent Growth (RPMI-8226; Log10 Concentration −8.0): 100%
- cytotoxicity compared to MMB (AML 052308 cells): less active than MMB
- inhibition at 10 µM [1]: > 60%
- GI50 (MALME-3M): 6.12 µM
- CC50 (MALME-3M): 63.2 µM
- TGI (MALME-3M): 2.19E−5
- Percent Growth (MALME-3M; Log10 Concentration −4.0): −72%
- Percent Growth (MALME-3M; Log10 Concentration −5.0): 37%
- Percent Growth (MALME-3M; Log10 Concentration −6.0): 97%
- Percent Growth (MALME-3M; Log10 Concentration −7.0): 91%
- Percent Growth (MALME-3M; Log10 Concentration −8.0): 100%
- GI50 (OVCAR-4): 10.1 µM
- IC (TGI) (OVCAR-4): 25.3 µM
- CC50 (OVCAR-4): 63.4 µM
- GI50 (HL-60(TB)): 3.59 µM
- CC50 (HL-60(TB)): 85.1 µM
- IC (TGI) (HL-60(TB)): 16.1 µM

SMILES: C=C1C(=O)O[C@H]2[C@H]1CC/C(COC(=O)OC)=C\CC[C@@]1(C)O[C@@H]21 [JVM 2-40]
- inhibition at 10 µM [1]: > 60%
- GI50 (OVCAR-4; NCI five dose): 3.76 µM
- IC (TGI) (OVCAR-4; NCI five dose): 18.7 µM
- CC50 (OVCAR-4; NCI five dose): 64.1 µM
- GI50 (HL-60(TB)): 1.69 µM
- CC50 (HL-60(TB)): 76.3 µM
- IC (TGI) (HL-60(TB)): 7.15 µM

SMILES: C=C1C(=O)O[C@H]2[C@H]1CC/C(COC(=O)NCCCCCCO)=C\CC[C@@]1(C)O[C@@H]21 [JVM 2-31]
- inhibition at 10 µM [1]: > 60%
- GI50 (OVCAR-4; NCI five dose): 4.01 µM
- IC (TGI) (OVCAR-4; NCI five dose): 19.4 µM
- CC50 (OVCAR-4; NCI five dose): 65.1 µM
- GI50 (HL-60(TB)): 3.64 µM
- CC50 (HL-60(TB)): > 100 µM
- IC (TGI) (HL-60(TB)): 14.2 µM

SMILES: C=C1C(=O)O[C@H]2[C@H]1CC/C(COC(=O)OCCCN1CCCCC1)=C\CC[C@@]1(C)O[C@@H]21 [JVM 2-26]
- cytotoxicity compared to MMB (AML 052308 cells): more potent than MMB
- fold more cytotoxic than MMB (AML 052308 cells): 3 fold
- inhibition at 10 µM [1]: > 60%
- GI50 (OVCAR-4): 2.13 µM
- IC (TGI) (OVCAR-4): 11.6 µM
- CC50 (OVCAR-4): 38.6 µM
- GI50 (HL-60(TB)): 1.88 µM
- CC50 (HL-60(TB)): 98.7 µM
- IC (TGI) (HL-60(TB)): 7.53 µM

SMILES: C=C1C(=O)O[C@H]2[C@H]1CC/C(COC(=S)n1ccnc1)=C\CC[C@@]1(C)O[C@@H]21 [JVM 66]
- GI50 (RPMI-8226): 11 µM
- CC50 (RPMI-8226): > 100 µM
- Percent Growth (RPMI-8226; Log10 Concentration −4.0): −31%
- Percent Growth (RPMI-8226; Log10 Concentration −5.0): 53%
- Percent Growth (RPMI-8226; Log10 Concentration −6.0): 102%
- Percent Growth (RPMI-8226; Log10 Concentration −7.0): 103%
- Percent Growth (RPMI-8226; Log10 Concentration −8.0): 103%
- TGI (RPMI-8226; NCI five dose): 4.29E−5
- cytotoxicity compared to MMB (AML 052308 cells): more potent than MMB
- fold more cytotoxic than MMB (AML 052308 cells): about 6 fold
- fold more potent than parthenolide (AML 052308 cells; AML 052308 cells): 3 fold
- inhibition at 10 µM [1]: > 60%
- GI50 (MALME-3M): 14.5 µM
- CC50 (MALME-3M): > 100 µM
- Percent Growth (MALME-3M; Log10 Concentration −4.0): −32%
- Percent Growth (MALME-3M; Log10 Concentration −5.0): 66%
- Percent Growth (MALME-3M; Log10 Concentration −6.0): 107%
- Percent Growth (MALME-3M; Log10 Concentration −7.0): 95%
- Percent Growth (MALME-3M; Log10 Concentration −8.0): 94%
- TGI (MALME-3M; NCI five dose): 4.74E−5
- GI50 (OVCAR-4; NCI five dose): 19.8 µM
- IC (TGI) (OVCAR-4; NCI five dose): 90.9 µM
- CC50 (OVCAR-4; NCI five dose): > 100 µM
- GI50 (HL-60(TB)): 4.05 µM
- CC50 (HL-60(TB)): 69.5 µM
- IC (TGI) (HL-60(TB)): 16.2 µM

SMILES: C=C1C(=O)O[C@H]2[C@H]1CC/C(COC(=O)NCCc1ccccn1)=C\CC[C@@]1(C)O[C@@H]21 [JVM 61, ((1aR,7aS,10aS,10bS,E)-1a-methyl-8-methylene-9-oxo-1a,2,3,6,7,7a,8,9,10a,10b-decahydrooxireno[2′,3′:9,10]cyclodeca[1,2-b]furan-5-yl)methyl-(2-(pyridin-2-yl)ethyl)carbamate]
- GI50 (RPMI-8226): 8.2 µM
- CC50 (RPMI-8226): > 100 µM
- TGI (RPMI-8226): 3.88E−5
- Percent Growth (RPMI-8226; Log10 Concentration −4.0): −32%
- Percent Growth (RPMI-8226; Log10 Concentration −5.0): 45%
- Percent Growth (RPMI-8226; Log10 Concentration −6.0): 100%
- Percent Growth (RPMI-8226; Log10 Concentration −7.0): 100%
- Percent Growth (RPMI-8226; Log10 Concentration −8.0): 102%
- cytotoxicity compared to MMB (AML 052308 cells): almost equal cytotoxicity to MMB
- inhibition at 10 µM [1]: > 60%
- GI50 (MALME-3M): 7.52 µM
- CC50 (MALME-3M): 84.9 µM
- TGI (MALME-3M): 2.71E−5
- Percent Growth (MALME-3M; Log10 Concentration −4.0): −57%
- Percent Growth (MALME-3M; Log10 Concentration −5.0): 44%
- Percent Growth (MALME-3M; Log10 Concentration −6.0): 95%
- Percent Growth (MALME-3M; Log10 Concentration −7.0): 100%
- Percent Growth (MALME-3M; Log10 Concentration −8.0): 114%
- GI50 (OVCAR-4): 7.17 µM
- IC (TGI) (OVCAR-4): 24.6 µM
- CC50 (OVCAR-4): 72.3 µM
- Percent Growth (OVCAR-4; Log10 Concentration −4.0): −65%
- Percent Growth (OVCAR-4; Log10 Concentration −5.0): 42%
- Percent Growth (OVCAR-4; Log10 Concentration −6.0): 99%
- Percent Growth (OVCAR-4; Log10 Concentration −7.0): 96%
- Percent Growth (OVCAR-4; Log10 Concentration −8.0): 103%

SMILES: C=C1C(=O)O[C@H]2[C@H]1CC/C(COC(=O)OCCN(C)C)=C\CC[C@@]1(C)O[C@@H]21 [JVM 2-35]
- inhibition at 10 µM [1]: > 60%
- GI50 (OVCAR-4; NCI five dose): 5.04 µM
- IC (TGI) (OVCAR-4; NCI five dose): 18.6 µM
- CC50 (OVCAR-4; NCI five dose): 44.6 µM
- GI50 (HL-60(TB)): 1.77 µM
- CC50 (HL-60(TB)): 87 µM
- IC (TGI) (HL-60(TB)): 6.4 µM

SMILES: C=C1C(=O)O[C@H]2[C@H]1CC/C(COC(=O)CCC(=O)NCc1ccc(Cl)nc1)=C\CC[C@@]1(C)O[C@@H]21 [JVM 96]
- GI50 (RPMI-8226): 4.16 µM
- CC50 (RPMI-8226): > 100 µM
- TGI (RPMI-8226): 2.09E−5
- Percent Growth (RPMI-8226; Log10 Concentration −4.0): −48%
- Percent Growth (RPMI-8226; Log10 Concentration −5.0): 23%
- Percent Growth (RPMI-8226; Log10 Concentration −6.0): 94%
- Percent Growth (RPMI-8226; Log10 Concentration −7.0): 107%
- Percent Growth (RPMI-8226; Log10 Concentration −8.0): 106%
- inhibition at 10 µM [1]: > 60%
- GI50 (OVCAR-4): 10.1 µM
- IC (TGI) (OVCAR-4): 23.6 µM
- CC50 (OVCAR-4): 55.2 µM
- Percent Growth (OVCAR-4; Log10 Concentration −4.0): −85%
- Percent Growth (OVCAR-4; Log10 Concentration −5.0): 51%
- Percent Growth (OVCAR-4; Log10 Concentration −6.0): 87%
- Percent Growth (OVCAR-4; Log10 Concentration −7.0): 90%
- Percent Growth (OVCAR-4; Log10 Concentration −8.0): 96%
- GI50 (HL-60(TB)): 2.12 µM
- CC50 (HL-60(TB)): > 100 µM
- IC (TGI) (HL-60(TB)): 8.75 µM
